The values below come from paper PMC6934184, “Selective DNA-PKcs inhibition extends the therapeutic index of localized radiotherapy and chemotherapy” (The Journal of Clinical Investigation, 2019).

Structures are written as SMILES.

The assay deals with T1, MARK4 (Homo sapiens, UniProt Q96L34).
T1 construct: purchased Thermo Fisher Scientific (Life Technologies) SelectScreen
Put plainly: SelectScreen Z'LYTE. Type of assay: biochemical. The gist of the method: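 NU5455 was profiled across the SelectScreen Broad panel of kinase activity and binding assays. Z'LYTE reactions such as CSF1R ran at apparent Km ATP, while the Adapta CAMK1 assay used ATP listed as 10. Values are given as percent.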

T1 sequence (Q96L34 whole entry): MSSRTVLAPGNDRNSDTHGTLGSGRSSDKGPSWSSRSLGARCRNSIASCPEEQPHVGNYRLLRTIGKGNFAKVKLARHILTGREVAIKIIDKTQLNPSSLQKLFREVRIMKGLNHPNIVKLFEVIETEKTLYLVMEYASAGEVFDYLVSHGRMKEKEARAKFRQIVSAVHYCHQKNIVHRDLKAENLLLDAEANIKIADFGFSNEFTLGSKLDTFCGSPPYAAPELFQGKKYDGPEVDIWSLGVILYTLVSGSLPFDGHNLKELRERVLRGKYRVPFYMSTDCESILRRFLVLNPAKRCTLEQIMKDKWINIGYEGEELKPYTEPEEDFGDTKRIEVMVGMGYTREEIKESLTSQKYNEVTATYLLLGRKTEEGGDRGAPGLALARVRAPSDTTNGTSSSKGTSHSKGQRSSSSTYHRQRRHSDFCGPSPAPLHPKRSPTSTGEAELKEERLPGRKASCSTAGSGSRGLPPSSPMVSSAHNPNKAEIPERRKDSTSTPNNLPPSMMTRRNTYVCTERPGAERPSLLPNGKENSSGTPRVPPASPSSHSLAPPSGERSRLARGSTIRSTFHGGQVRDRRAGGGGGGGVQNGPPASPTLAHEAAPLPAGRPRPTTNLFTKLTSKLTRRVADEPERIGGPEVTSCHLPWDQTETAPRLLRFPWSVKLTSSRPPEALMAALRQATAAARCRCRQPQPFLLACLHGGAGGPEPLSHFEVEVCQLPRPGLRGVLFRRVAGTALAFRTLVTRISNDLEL

Turning to `CN(C(=O)CN1CCOCC1)c1ccc2sc3c(-c4cccc5c(=O)cc(N6CC7CCC(C6)O7)oc45)cccc3c2c1` [NU5455], the inhibition at 1 µM is -2%.

Broadly, the inhibition is the drop in the measured response relative to a control, in per cent.
